Values quoted from earlier work in US20250235578A1, “WOUND DRESSING COMPOSITIONS AND METHODS OF USE AND PREPARATION THEROF” (T.J.Smith and Nephew,Limited, priority 2021, published 2025).

Settings: under normal conditions

## [N]=O [NO, nitric oxide]
  maximum solubility in water: approximately 1.7 mM
